Results reported in the supplement of paper PMC3493320.

Tested on: NCI-H295R
Assay: IC50 (antiproliferative, ATP content)
Details: 48 h
Summary of the method: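 Adrenocortical carcinoma cells (1500 per well) were seeded in serum-free ITS-supplemented DMEM in 1536-well plates and cultured overnight. Library compounds were then pin-transferred at 8 final concentrations from 0.6 nM to 46 µM, and plates were kept 48 h at 37 °C, 5% CO2. ATP was read as CellTiter-Glo luminescence after 20 min at room temperature and normalised to vehicle (0%) and positive control (100% inhibition). IC50 came from four-parameter logistic fits; compounds with no concentration response were recorded as above the top dose.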

IC50	SMILES
> 46 µM	CSc1ccc(C(=O)c2[nH]c(=O)[nH]c2C)cc1
> 46 µM	CCOC(=O)c1ccccc1O
> 46 µM	CC(C)CN(C[C@@H](O)[C@H](Cc1ccccc1)NC(=O)O[C@@H]1CCOC1)S(=O)(=O)c1ccc(N)cc1
> 46 µM	Cc1cc(C(C)(C)C)c(O)c(C)c1CC1=NCCN1
> 46 µM	C=CCOc1ccc(CC(=O)O)cc1Cl
> 46 µM	CC(=O)N[C@@H]([C@@H](O)[C@H](O)[C@H](O)CO)[C@@H](O)CC(=O)C(=O)O
> 46 µM	C1COC(NC(C2CC2)C2CC2)=N1
> 46 µM	CC(C)NCC1CCc2cc(CO)c([N+](=O)[O-])cc2N1 (stereo not given)
> 46 µM	CS(=O)(=O)OCC(O)C(O)COS(C)(=O)=O (stereo not given)
> 46 µM	O=c1[nH]cnc2nc[nH]c12
> 46 µM	c1cccc2N\C=C/c12
> 46 µM	Cc1oc(=O)oc1CN1CCN(c2cc3c(cc2F)c(=O)c(C(=O)O)c2n3C(C)S2)CC1 (stereo not given)
> 46 µM	NS(=O)(=O)c1cc(C(=O)O)cc(N2CCCC2)c1Oc1ccccc1
> 46 µM	O=C(O)CCC(=O)O
> 46 µM	CN1[C@@H](CC(=O)c2ccccc2)CCC[C@H]1C[C@H](O)c1ccccc1
> 46 µM	COC1[C@@H](O[C@@H]2O[C@H](C)[C@@H](O[C@H]3C[C@@](C)(O)[C@H](OC(=O)CC(C)C)[C@H](C)O3)[C@H](N(C)C)[C@H]2O)[C@@H](CC=O)C[C@@H](C)[C@@H](O)/C=C/C=C/C[C@@H](C)OC(=O)C[C@H]1OC(C)=O (stereo not given in full)
> 46 µM	CC(C)C(=O)Nc1ccc([N+](=O)[O-])c(C(F)(F)F)c1
> 46 µM	CN(C(=O)CCCOc1ccc2[nH]c(=O)ccc2c1)C1CCCCC1
> 46 µM	O=C(O)C(=O)O.c1ccc2cc(C3=NCCN3)ccc2c1
> 46 µM	O=[C@@]([C@@H]2CC[C@@H](CN)CC2)OC1=CC=C(CCC(O)=O)C=C1.Cl
> 46 µM	O=C1c2c(O)cccc2[C@H]([C@@H]2O[C@H](CO)[C@@H](O)[C@H](O)[C@H]2O)c2cc(CO)cc(O)c21
> 46 µM	CC(C)=CCC/C(C)=C/CC/C(C)=C/CC/C=C(\C)CC/C=C(\C)CCC=C(C)C
> 46 µM	O=C(NCC(O)CO)c1c(I)c(C(=O)NCC(O)CO)c(I)c(N(CCO)C(=O)CO)c1I (stereo not given)
> 46 µM	CCOc1ccc(NC(C)=O)cc1
> 46 µM	CC=CC1=C(C(=O)O)N2C(=O)[C@@H](NC(=O)[C@H](N)c3ccc(O)cc3)[C@H]2SC1.O
> 46 µM	NS(=O)(=O)c1cc(Cl)c(Cl)c(S(N)(=O)=O)c1
> 46 µM	O=C1NCCN1c1ncc([N+](=O)[O-])s1

IC50	SMILES
> 46 µM	COC1=C(OC)C(=O)C(C/C=C(\C)CC/C=C(\C)CC/C=C(\C)CC/C=C(\C)CC/C=C(\C)CC/C=C(\C)CC/C=C(\C)CC/C=C(\C)CC/C=C(\C)CCC=C(C)C)=C(C)C1=O
> 46 µM	CN1CCC(=C2c3ccccc3CCc3sccc32)CC1
> 46 µM	CC(N)CCCC(C)(C)O.Cl (stereo not given)
> 46 µM	CCCCCCCCCCCCCCCC(=O)NCCO
> 46 µM	O=C(O)CCn1c2c(c3ccccc31)C[C@H](NS(=O)(=O)c1ccc(F)cc1)CC2
> 46 µM	O=C(C=Cc1ccccc1)NCCO
> 46 µM	CC(=O)Nc1ncc([N+](=O)[O-])s1
> 46 µM	CCOc1cc(-c2nccc3cc(OC)c(OC)cc23)cc(OCC)c1OCC
> 46 µM	CC(C)c1ccc2oc3nc(N)c(C(=O)O)cc3c(=O)c2c1
> 46 µM	CC(C)=CCC1C(=O)N(c2ccccc2)N(c2ccccc2)C1=O
> 46 µM	CC1(C)O[C@@H]2CC3C4C[C@H](F)C5=CC(=O)C=C[C@]5(C)C4[C@@H](O)C[C@]3(C)[C@]2(C(=O)CO)O1 (stereo not given in full)
> 46 µM	OC[C@H]1O[C@@H]2O[C@H]3[C@H](O)[C@@H](O)[C@@H](O[C@H]4[C@H](O)[C@@H](O)[C@@H](O[C@H]5[C@H](O)[C@@H](O)[C@@H](O[C@H]6[C@H](O)[C@@H](O)[C@@H](O[C@H]7[C@H](O)[C@@H](O)[C@@H](O[C@H]1[C@H](O)[C@H]2O)O[C@@H]7CO)O[C@@H]6CO)O[C@@H]5CO)O[C@@H]4CO)O[C@@H]3CO
> 46 µM	O=c1[nH]c(=O)n([C@H]2C[C@H](O)[C@@H](CO)O2)cc1I
> 46 µM	CCOC(=O)C(C)(C)Oc1ccc(Cl)cc1
> 46 µM	COc1ccc(C2CNC(=O)C2)cc1OC1CCCC1 (stereo not given)
> 46 µM	CC(=O)[C@H]1CC[C@H]2[C@@H]3C[C@H](C)C4=CC(=O)CC[C@]4(C)[C@H]3[C@@H](O)C[C@]12C
> 46 µM	O=C(NCCNCC(O)COc1ccc(O)cc1)N1CCOCC1 (stereo not given)
> 46 µM	CC(C)[C@H](NC(=O)[C@H](CC(=O)O)NC(=O)[C@H](CCCCN)NC(=O)[C@@H](N)CCCNC(=N)N)C(=O)N[C@@H](Cc1ccc(O)cc1)C(=O)O
> 46 µM	COc1nccnc1NS(=O)(=O)c1ccc(N)cc1
> 46 µM	COC(=O)[C@H](Cc1ccccc1)NC(=O)[C@@H](N)CC(=O)O
> 46 µM	CC[N+](CC)(CCNC(=O)C(=O)NCC[N+](CC)(CC)Cc1ccccc1Cl)Cc1ccccc1Cl.[Cl-].[Cl-]
> 46 µM	OCc1ccccc1
> 46 µM	CC(C)[C@@H]1CC[C@@H](C)C[C@H]1O
> 46 µM	CC1(C)S[C@@H]2[C@H](NC(=O)[C@H](NC(=O)N3CCN(S(C)(=O)=O)C3=O)c3ccccc3)C(=O)N2[C@H]1C(=O)O
> 46 µM	COc1ccc2c(=O)c(C)c(-c3ccccc3)oc2c1CN(C)C.Cl
> 46 µM	CCCCOc1cc(C(=O)NCCN(CC)CC)c2ccccc2n1
> 46 µM	O=C(O)c1cc(O)nc(O)n1

SMILES	IC50
CC(C)C(Br)C(=O)NC(N)=O (stereo not given)	> 46 µM
BrCCCBr.CN(C)CCCCCCN(C)C	> 46 µM
N#CCCN.N#CCCN.O=C(O)/C=C/C(=O)O	> 46 µM
[H][C@]1(CC3)[C@]([H])4[C@]([C@@H]([C@@](C)=O)CC4)(C)CC[C@@]([H])1[C@]2(C)[C@]3([H])C[C@H](O)CC2	> 46 µM
O[C@@H]3C\C4=C\C[C@@H]1[C@H](CC[C@]2(C)[C@@H](O)CC[C@@H]12)[C@@]4(C)CC3	> 46 µM
CC(=O)[C@H]1CC[C@H]2[C@@H]3CC[C@H]4C[C@H](O)CC[C@]4(C)[C@H]3C(=O)C[C@]12C	> 46 µM
CC(=O)OCC1=C(C(=O)O)N2C(=O)[C@@H](N)[C@H]2SC1	> 46 µM
CCN(CC)CCOC(=O)C(C)(c1ccccc1)c1ccccc1	> 46 µM
CC[NH+](CC)CCc1nc(-c2ccccc2)no1.O=C([O-])CC(O)(CC(=O)O)C(=O)O	> 46 µM
Cc1ccccc1C(OCCN(C)C)c1ccccc1.O=C(O)CC(O)(CC(=O)O)C(=O)O (stereo not given)	> 46 µM
O=C(CCCN1CCC(n2c(=O)[nH]c3ccccc32)CC1)c1ccc(F)cc1	> 46 µM
CS(=O)(=O)O.CS(=O)(=O)O.N=C(N)c1ccc(/C=C/c2ccc(C(=N)N)cc2O)cc1	> 46 µM
CCN(CC)C(=O)C(Cl)=C(C)OP(=O)(OC)OC	> 46 µM
N[C@H](C)[C@@H](O)[C@]1=CC=CC=C1.Cl	> 46 µM
O=C1OC2(c3cc(Br)c([O-])cc3Oc3c2cc(Br)c([O-])[c]3[Hg][OH])c2ccccc21.[Na+].[Na+] (stereo not given)	> 46 µM
CC(C)[N+](C)(CCC(C(N)=O)(c1ccccc1)c1ccccc1)C(C)C	> 46 µM
